Data from publication PMC11889359, “Site-Specific Competitive Kinase Inhibitor Target Profiling Using Phosphonate Affinity Tags” (Molecular & Cellular Proteomics : MCP, 2025).
Read-outs that look alike come from different tables or passages of the source.

Assays:
[1] = target: T1, epithelial discoidin domain-containing receptor 1 (DDR1) (Homo sapiens, UniProt Q08345); assay: Competitive site-specific PhosID-ABPP with XO44 in intact A549 cells; format: binding; conditions: apparent IC50, pepsin-based analysis, n = 3, read-out: IC50 DDR1;K655
T1 construct: endogenous in cells; host or cells: cultured cells treated intact (A549 per the earlier reading)
T1 sequence (Q08345 19-913): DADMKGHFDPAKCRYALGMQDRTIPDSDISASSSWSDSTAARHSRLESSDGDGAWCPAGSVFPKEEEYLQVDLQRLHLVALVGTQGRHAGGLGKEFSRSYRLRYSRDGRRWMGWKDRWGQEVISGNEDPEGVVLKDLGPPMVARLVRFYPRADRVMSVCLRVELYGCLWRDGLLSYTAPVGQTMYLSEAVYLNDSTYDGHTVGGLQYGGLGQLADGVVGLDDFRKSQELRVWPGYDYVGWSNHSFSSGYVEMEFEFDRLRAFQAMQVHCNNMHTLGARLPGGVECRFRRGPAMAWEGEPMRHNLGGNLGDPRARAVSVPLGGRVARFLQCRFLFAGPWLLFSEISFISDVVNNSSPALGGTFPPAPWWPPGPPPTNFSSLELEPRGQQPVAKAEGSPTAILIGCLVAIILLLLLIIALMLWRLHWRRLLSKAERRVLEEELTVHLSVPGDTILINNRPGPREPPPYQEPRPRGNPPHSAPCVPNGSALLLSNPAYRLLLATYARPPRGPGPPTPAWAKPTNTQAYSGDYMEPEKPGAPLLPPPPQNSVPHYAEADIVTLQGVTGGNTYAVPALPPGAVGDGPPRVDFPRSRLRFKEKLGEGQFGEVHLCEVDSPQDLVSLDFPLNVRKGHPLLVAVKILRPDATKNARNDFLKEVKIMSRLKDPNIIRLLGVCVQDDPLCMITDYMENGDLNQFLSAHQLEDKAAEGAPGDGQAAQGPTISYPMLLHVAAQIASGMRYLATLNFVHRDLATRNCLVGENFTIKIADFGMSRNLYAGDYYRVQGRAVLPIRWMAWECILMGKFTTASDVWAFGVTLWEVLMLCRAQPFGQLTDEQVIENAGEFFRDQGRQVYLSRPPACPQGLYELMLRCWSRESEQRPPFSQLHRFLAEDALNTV
Procedure: (§1) 1e^6 cells were plated in 15 cm plates (Greiner) 3 days before treatment and kept in a humidified atmosphere with 5% CO2 at 37 °C. The growth medium was replaced by 10 ml treatment [DMEM with 0.5% FBS and 100 units/ml PS supplemented with the corresponding concentration of NVP-BHG712 (Sigma-Aldrich) or DMSO] and incubated at 37 °C, 5% CO2 for 3 h. Then, 10 μl 25 mM XO44 (PF-6808472, Sigma-Aldrich) was added directly to the medium and swirled to enable dissolution. Subsequently, the cells were incubated at 37 °C, 5% CO2 for 4 h. The samples for Supplemental Fig. S1 were generated by directly incubating with 25 μM XO44-containing growth medium for 4 h.
(§2) After treatment, the cells were washed with ice-cold DPBS and harvested using a cell scraper in 1 ml ice-cold DPBS. Then, the cell suspension was spun down at 2000g for 1 min, and the supernatant was aspirated. The cell pellet was snap-frozen in liquid nitrogen and stored at −80 °C for later use.
(§3) Cell pellets were lysed in 500 μl lysis buffer per 15 cm plate of cells, consisting of 50 mM Hepes (Sigma-Aldrich, pH 7.5), 0.5% NP-40 (Applichem), 0.2% SDS (Gen-Apex), 2 mM MgCl2 (Sigma-Aldrich), 10 mM NaCl (Merck), 1× protease inhibitor cocktail (Roche), and 0.5 μl/ml Benzonase (Millipore). Cell lysates were incubated at room temperature for 15 min to allow DNA cleavage. Cell debris and DNA were spun down for 30 min at 20,567g at 16 °C. The supernatant was collected, and the protein concentration was determined by a bicinchoninic acid assay (Thermo Fisher Scientific).
(§4) The copper(I)-catalyzed azide-alkyne cycloaddition (CuAAC) was performed on cellular lysates in 2 M urea (Merck) in 1× 50 mM Hepes (pH 7.5). CuAAC components were added in the following order: 5 mM tris(3-hydroxypropyltriazolylmethyl)amine (Lumiprobe), 2.5 mM CuSO4 5·H2O (Sigma-Aldrich), 500 μM phosphonate-azide (prepared as described in van Bergen et al., 2023 ([28])), and 25 mM sodium ascorbate (Sigma-Aldrich). Samples were incubated for 2 h at room temperature while rotating. Methanol–chloroform precipitation was performed to remove the CuAAC components, and the air-dried pellets were resuspended in 8 M urea and sonicated in a bioruptor (Diagenode) with the high amplitude setting for 10 min with cycles of 30 s on and 30 s off.
(§5) Clicked and dissolved protein samples were diluted to 4M urea with 50 mM ammonium bicarbonate (pH 8, AmBic, Sigma-Aldrich). The proteins were reduced with 4 mM DTT (Sigma-Aldrich) for 60 minutes at room temperature and alkylated in the dark using 8 mM iodoacetamide (Sigma-Aldrich) for 30 min. Residual iodoacetamide was quenched by adding DTT to a final concentration of 4 mM.
(§6) Next, samples were diluted 2× with 50 mM AmBic and digested with LysC (1:75 enzyme to protein ratio, Wako) for 4 h at 37 °C. Finally, proteins were digested overnight using Trypsin (1:50, enzyme to protein ratio, Sigma-Aldrich) at 37 °C. Proteolysis with chymotrypsin was performed similarly to the trypsin digestion, only replacing both proteolytic enzymes with α-chymotrypsin (bovine, 1:75, enzyme to protein ratio, Sigma-Aldrich) overnight at 37 °C. Digested material was desalted using 3 cc C18 Seppak cartridges (Waters) and air dried using a vacuum centrifuge.
(§7) For the digestion with pepsin, protease incubation (Porcine, 1:50, enzyme to protein ratio, Sigma-Aldrich) was performed for 4 h at 37 °C in 40 mM HCl (pH 2). Digested material was directly desalted using 3 cc C18 Seppak cartridges and air dried using a vacuum centrifuge.
(§8) Samples were dephosphorylated prior to immobilized metal affinity chromatography (IMAC) enrichment. Desalted peptides were dissolved in 1× rCutSmart buffer (pH 8, New England BioLabs) and incubated with 50 units of alkaline phosphatase (calf intestinal, QuickCIP, New England BioLabs) overnight at 37 °C while shaking. After dephosphorylation, all peptides were again desalted using 3 cc C18 Seppak cartridges and air-dried using a vacuum centrifuge. […]

[2] = target: T2, inosine-5′-monophosphate dehydrogenase 2 (IMPDH2) (Homo sapiens, UniProt P12268); assay: as above; format: binding; conditions: apparent IC50, competition with XO44 on lysine 450, n = 3, read-out: IC50 IMPDH2;K450
T2 construct: endogenous in cells; host or cells: cultured cells treated intact (A549 per the earlier reading)
T2 sequence (P12268 2-514 limits assumed): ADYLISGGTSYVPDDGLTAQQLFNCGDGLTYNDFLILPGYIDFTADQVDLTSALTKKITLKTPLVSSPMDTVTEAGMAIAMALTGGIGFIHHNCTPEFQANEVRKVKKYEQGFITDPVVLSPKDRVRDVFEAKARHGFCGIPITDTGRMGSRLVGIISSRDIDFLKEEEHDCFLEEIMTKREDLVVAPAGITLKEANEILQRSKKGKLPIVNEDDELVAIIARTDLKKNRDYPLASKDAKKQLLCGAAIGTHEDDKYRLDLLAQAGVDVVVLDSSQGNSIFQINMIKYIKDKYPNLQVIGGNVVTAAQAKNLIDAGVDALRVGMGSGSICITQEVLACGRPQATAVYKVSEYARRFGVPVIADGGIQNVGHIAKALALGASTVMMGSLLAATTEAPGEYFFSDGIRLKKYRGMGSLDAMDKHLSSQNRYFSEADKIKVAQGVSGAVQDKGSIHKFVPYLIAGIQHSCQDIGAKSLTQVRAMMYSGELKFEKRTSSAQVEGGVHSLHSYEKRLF
Procedure: as §1, §2, §3, §4, §5, §6, §7, §8

[3] = target: T3, neurotrophic receptor tyrosine kinase 3 (NTRK3) (Homo sapiens, UniProt Q16288); assay: as above; format: binding; conditions: 0.1 nM to 25 µM inhibitor, pepsin
T3 construct: endogenous in cells; host or cells: cultured cells treated intact (A549 per the earlier reading)
T3 sequence (Q16288 32-839): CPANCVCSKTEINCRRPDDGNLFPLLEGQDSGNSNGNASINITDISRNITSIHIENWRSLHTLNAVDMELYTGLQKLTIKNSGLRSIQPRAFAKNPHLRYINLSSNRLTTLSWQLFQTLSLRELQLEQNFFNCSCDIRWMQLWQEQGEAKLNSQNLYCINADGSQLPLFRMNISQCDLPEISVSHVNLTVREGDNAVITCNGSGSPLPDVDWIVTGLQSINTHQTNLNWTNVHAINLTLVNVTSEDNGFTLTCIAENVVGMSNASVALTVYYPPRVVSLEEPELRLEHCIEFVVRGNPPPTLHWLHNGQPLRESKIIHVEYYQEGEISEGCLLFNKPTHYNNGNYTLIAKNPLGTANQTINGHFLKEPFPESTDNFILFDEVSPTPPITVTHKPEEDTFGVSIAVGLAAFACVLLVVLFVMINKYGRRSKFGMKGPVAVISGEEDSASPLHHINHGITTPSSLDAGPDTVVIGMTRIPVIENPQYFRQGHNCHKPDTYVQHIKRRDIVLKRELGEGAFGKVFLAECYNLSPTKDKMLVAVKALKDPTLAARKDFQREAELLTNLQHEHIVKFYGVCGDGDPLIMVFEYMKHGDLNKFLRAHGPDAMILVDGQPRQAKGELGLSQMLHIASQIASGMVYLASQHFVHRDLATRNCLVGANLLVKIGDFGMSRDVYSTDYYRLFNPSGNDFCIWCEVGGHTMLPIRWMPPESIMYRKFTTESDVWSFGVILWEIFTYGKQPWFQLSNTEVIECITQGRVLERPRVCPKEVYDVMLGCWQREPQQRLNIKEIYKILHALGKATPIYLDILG
Procedure: as §1, §2, §3, §4, §5, §6, §7, §8

[4] = target: T4, proto-oncogene tyrosine-protein kinase src (SRC) (Homo sapiens, UniProt P12931); assay: as above; format: binding; conditions: 0.1 nM to 25 µM inhibitor, trypsin and pepsin
T4 construct: endogenous in cells; host or cells: cultured cells treated intact (A549 per the earlier reading)
Procedure: as §1, §2, §3, §4, §5, §6, §7, §8

[5] = test system: apoptosis signal-regulating kinases 1-3 (MAP3K5/6/15); assay: as above; format: binding, human; conditions: apparent IC50, nonunique peptide, n = 3, read-out: IC50 MAP3K5/6/15 (nonunique peptide: MAP3K5;K709, MAP3K6;K677, MAP3K15;K681)
Procedure: as §1, §2
as §3, with “Cell lysates were incubated at room temperature for 15 min to allow DNA cleavage. Cell debris and DNA were spun down for 30 min at 20,567g at 16 °C.” left out, “Scientific). […]” for “Scientific).”

EphA2 [6] = target: EphA2; set-up: method as in PMID 29928781; conditions: read-out: Literature value for EphA2, microscale thermo-phoresis; cited from earlier work
EphA2 [7] = test system: EphA2; set-up: method as in PMID 29928781; conditions: read-out: Literature value for EphA2, NanoBRET assay; cited from earlier work
EphA2 [8] = target: EphA2; set-up: method as in PMID 29928781; conditions: read-out: Literature value for EphA2, kinobeads; cited from earlier work
EphB4 = test system: EphB4; set-up: method as in PMID 20803239; conditions: cellular autophosphorylation; cited from earlier work
DDR1 = test system: DDR1; set-up: method as in PMID 36799129; conditions: cited from earlier work

NVP-BHG712
IC50 [1]: 2.1 nM | IC50 [2]: 9600 nM | MaxLFQ signal of XO44-bound NTRK3;K572 over the concentration range [3]: stable MaxLFQ signal over the full concentration range | Interaction with ATP-binding pocket, SRC;K298 signal across the concentration range [4]: do not interact | IC50 [5]: 9700 nM | Kd (EphA2 [6]): 13 nM | IC50 (EphA2 [7]): 3 nM | Kd (EphA2 [8]): 240 nM | IC50 (EphB4): 25 nM | Binding to DDR1 in kinobeads profiling (DDR1): does not bind
